ChEMBL document CHEMBL5291721, “A preclinical secondary pharmacology resource illuminates target-adverse drug reaction associations of marketed drugs” (Nat Commun, 2023)
*1 amine or outer side, *2 acyl side, *3 side chain or, on linkers, in order; H or OH if unused. Where a SMILES comes first, the peptide text is derived from it. Bridges are numbered along the chain shown (N, C = ends). [ ]: non-standard residue; d: D form. The star is where a group is joined. hTyr(3S-OH,4S-OH,3'-OSO3H) = N[C@H](C(=O)O)[C@H](O)[C@@H](O)c1ccc(O)c(OS(=O)(=O)O)c1; Orn(4R-OH,5R-OH) = O=C([C@H](C[C@@H](O)[C@@H](O)N[*:3])N[*:1])[*:2]; Pro(3S-OH,4S-Me) = C[C@H]1CN[C@H](C(=O)O)[C@H]1O; X1 = CCCCCOc1ccc(-c2cc(-c3ccc(C(=O)*)cc3)no2)cc1; Gln(3R-OH) = NC(=O)C[C@@H](O)[C@H](N)C(=O)O; Hyp = O=C(O)[C@@H]1C[C@@H](O)CN1

Columns and labels:
[1] = target: Adenosine receptor A2a (Homo sapiens, UniProt P29274)
[2] = target: T1, Alpha-2C adrenergic receptor (Homo sapiens, UniProt P18825); type: functional
T1 sequence (P18825 whole entry): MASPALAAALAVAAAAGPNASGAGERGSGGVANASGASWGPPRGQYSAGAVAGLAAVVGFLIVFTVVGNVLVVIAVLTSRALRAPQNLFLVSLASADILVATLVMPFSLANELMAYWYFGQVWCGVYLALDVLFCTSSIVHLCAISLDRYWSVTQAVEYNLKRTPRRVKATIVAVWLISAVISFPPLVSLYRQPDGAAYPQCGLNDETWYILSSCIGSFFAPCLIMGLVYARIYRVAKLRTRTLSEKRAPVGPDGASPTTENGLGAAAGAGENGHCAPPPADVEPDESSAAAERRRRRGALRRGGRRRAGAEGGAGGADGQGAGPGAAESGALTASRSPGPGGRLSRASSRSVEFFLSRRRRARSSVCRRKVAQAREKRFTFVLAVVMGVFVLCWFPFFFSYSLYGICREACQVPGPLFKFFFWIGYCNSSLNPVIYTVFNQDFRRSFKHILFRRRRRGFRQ

[3] = target: Beta-2 adrenergic receptor (Homo sapiens, UniProt P07550); type: functional, cell-based
[4] = target: 5-hydroxytryptamine receptor 2B (Homo sapiens, UniProt P41595); type: functional, cell-based
[5] = target: Sodium-dependent dopamine transporter (Homo sapiens, UniProt Q01959)
[6] = target: T2, Alpha-1A adrenergic receptor (Homo sapiens, UniProt P35348); type: functional, cell-based
T2 sequence (P35348 whole entry): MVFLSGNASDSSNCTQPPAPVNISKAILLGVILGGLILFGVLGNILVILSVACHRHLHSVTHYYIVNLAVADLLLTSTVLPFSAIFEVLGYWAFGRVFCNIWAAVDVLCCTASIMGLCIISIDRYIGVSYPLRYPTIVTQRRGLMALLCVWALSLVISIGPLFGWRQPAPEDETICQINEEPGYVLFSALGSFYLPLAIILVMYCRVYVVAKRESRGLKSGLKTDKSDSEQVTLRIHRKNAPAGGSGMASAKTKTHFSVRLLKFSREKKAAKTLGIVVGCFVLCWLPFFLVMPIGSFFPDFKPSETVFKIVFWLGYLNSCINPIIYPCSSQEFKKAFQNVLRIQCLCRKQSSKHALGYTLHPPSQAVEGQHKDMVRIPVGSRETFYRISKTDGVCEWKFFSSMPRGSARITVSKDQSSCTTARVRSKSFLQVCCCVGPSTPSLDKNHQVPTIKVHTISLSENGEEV

[7] = target: Histamine H3 receptor (Homo sapiens, UniProt Q9Y5N1)
[8] = target: T3, 5-hydroxytryptamine receptor 1A (Homo sapiens, UniProt P08908); type: functional, cell-based
T3 sequence (P08908 whole entry): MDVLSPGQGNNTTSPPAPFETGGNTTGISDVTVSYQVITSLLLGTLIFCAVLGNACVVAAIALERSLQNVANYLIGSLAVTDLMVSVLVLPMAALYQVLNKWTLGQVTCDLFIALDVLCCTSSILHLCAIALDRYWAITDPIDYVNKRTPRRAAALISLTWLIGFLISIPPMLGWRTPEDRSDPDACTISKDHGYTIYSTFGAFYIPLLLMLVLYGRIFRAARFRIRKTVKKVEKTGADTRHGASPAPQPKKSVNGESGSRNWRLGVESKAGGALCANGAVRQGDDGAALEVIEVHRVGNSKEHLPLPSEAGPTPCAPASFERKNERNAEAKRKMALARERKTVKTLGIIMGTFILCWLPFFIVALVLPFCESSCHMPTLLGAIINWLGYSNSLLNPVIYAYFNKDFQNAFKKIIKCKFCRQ

[9] = target: cGMP-inhibited 3',5'-cyclic phosphodiesterase 3A (Homo sapiens, UniProt Q14432); type: functional
[10] = target: T4, Muscarinic acetylcholine receptor M1 (Homo sapiens, UniProt P11229); type: functional, cell-based
T4 sequence (P11229 whole entry): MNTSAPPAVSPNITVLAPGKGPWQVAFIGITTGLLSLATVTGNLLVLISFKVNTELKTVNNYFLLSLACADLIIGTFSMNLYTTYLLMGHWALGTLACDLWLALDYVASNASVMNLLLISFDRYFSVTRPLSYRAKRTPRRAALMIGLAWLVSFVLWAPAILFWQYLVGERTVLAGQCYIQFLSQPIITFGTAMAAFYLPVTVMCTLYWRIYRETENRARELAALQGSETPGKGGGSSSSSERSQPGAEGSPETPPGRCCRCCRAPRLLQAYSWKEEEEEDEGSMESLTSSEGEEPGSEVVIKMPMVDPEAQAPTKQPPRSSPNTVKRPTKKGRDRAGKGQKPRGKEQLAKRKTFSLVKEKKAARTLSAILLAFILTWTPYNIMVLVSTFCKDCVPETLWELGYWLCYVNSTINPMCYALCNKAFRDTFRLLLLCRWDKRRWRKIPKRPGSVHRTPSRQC

[11] = target: T5, Estrogen receptor (Homo sapiens, UniProt P03372)
T5 sequence (P03372 whole entry): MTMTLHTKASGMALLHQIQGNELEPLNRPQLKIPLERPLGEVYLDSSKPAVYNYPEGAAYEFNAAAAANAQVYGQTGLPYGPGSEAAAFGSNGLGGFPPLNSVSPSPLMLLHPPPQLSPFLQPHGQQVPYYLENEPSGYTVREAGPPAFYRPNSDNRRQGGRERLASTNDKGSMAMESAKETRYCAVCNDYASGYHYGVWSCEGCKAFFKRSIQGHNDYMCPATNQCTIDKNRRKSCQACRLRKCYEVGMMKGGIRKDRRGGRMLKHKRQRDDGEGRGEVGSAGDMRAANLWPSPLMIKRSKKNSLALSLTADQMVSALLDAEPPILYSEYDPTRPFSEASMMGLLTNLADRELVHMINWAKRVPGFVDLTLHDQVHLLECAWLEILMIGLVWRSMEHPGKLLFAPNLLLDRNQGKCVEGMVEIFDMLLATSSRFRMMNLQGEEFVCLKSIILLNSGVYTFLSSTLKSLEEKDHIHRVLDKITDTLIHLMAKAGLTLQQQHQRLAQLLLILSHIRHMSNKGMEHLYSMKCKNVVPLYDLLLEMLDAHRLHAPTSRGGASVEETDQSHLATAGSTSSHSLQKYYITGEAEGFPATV

[12] = target: Cannabinoid receptor 1 (Homo sapiens, UniProt P21554); type: functional, cell-based
Also: assay procedure not described here.

Sequence of Histamine H3 receptor (Q9Y5N1 whole entry): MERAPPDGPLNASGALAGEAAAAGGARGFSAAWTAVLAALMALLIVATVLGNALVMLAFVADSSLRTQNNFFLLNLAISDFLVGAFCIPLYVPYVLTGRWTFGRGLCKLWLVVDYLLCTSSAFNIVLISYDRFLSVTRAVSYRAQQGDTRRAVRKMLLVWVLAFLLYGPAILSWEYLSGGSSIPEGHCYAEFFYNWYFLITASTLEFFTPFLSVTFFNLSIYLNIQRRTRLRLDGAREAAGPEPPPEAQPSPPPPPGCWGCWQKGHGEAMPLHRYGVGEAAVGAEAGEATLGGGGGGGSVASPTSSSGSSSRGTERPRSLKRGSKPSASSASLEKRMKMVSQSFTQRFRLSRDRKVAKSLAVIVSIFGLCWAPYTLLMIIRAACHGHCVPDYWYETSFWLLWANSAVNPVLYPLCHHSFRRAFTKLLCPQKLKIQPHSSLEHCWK
Sequence of 5-hydroxytryptamine receptor 2B (P41595 whole entry): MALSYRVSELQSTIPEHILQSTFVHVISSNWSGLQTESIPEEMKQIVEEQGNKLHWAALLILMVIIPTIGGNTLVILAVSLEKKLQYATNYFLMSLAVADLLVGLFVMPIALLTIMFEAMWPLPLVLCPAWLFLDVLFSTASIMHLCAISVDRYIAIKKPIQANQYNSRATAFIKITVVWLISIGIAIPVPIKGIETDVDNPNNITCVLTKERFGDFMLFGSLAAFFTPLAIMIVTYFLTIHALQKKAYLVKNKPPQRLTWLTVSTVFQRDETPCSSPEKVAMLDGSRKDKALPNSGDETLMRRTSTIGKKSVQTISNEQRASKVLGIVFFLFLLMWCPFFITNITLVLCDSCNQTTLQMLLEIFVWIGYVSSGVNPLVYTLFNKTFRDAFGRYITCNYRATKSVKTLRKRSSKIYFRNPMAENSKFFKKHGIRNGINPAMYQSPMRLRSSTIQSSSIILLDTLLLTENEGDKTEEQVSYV
Sequence of cGMP-inhibited 3',5'-cyclic phosphodiesterase 3A (Q14432 whole entry): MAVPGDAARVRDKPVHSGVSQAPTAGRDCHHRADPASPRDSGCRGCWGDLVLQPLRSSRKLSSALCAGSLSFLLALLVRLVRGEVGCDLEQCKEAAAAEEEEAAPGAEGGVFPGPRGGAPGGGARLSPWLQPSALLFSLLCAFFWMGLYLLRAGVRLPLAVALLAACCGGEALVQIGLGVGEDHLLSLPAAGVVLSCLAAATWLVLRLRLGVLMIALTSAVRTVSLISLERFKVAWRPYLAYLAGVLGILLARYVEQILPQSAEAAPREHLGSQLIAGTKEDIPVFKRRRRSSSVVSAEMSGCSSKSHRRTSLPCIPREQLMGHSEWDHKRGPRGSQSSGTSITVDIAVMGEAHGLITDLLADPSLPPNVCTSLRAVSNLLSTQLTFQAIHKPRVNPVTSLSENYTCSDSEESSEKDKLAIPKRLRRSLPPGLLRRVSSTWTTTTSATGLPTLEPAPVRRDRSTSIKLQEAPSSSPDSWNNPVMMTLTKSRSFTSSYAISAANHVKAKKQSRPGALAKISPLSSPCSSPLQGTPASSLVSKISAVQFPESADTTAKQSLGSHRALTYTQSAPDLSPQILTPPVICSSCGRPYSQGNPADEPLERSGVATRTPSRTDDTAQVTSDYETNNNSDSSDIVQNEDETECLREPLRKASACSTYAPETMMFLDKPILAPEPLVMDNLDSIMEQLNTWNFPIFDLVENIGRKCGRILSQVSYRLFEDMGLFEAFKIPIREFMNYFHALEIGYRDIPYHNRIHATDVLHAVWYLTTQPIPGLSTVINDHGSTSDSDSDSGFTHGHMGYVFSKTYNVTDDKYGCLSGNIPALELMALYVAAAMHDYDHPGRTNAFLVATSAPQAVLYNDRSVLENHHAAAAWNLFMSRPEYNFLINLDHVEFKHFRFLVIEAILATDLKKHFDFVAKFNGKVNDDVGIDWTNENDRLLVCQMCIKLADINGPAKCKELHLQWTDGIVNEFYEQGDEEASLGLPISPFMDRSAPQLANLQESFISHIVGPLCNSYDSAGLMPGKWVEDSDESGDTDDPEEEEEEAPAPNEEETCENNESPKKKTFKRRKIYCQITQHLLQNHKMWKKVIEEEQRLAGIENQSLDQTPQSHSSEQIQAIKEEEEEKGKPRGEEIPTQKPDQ
Sequence of Beta-2 adrenergic receptor (P07550 whole entry): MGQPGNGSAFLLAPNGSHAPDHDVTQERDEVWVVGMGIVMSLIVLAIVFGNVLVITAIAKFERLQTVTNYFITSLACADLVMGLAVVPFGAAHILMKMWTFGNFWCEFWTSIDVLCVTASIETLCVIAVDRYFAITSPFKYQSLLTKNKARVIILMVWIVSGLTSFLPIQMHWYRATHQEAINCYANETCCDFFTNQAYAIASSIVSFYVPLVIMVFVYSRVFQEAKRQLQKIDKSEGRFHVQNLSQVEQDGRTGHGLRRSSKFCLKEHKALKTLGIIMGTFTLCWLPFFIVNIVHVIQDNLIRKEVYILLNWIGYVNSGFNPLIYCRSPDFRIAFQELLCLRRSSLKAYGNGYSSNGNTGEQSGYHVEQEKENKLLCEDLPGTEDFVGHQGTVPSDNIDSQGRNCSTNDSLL
Sequence of Sodium-dependent dopamine transporter (Q01959 whole entry): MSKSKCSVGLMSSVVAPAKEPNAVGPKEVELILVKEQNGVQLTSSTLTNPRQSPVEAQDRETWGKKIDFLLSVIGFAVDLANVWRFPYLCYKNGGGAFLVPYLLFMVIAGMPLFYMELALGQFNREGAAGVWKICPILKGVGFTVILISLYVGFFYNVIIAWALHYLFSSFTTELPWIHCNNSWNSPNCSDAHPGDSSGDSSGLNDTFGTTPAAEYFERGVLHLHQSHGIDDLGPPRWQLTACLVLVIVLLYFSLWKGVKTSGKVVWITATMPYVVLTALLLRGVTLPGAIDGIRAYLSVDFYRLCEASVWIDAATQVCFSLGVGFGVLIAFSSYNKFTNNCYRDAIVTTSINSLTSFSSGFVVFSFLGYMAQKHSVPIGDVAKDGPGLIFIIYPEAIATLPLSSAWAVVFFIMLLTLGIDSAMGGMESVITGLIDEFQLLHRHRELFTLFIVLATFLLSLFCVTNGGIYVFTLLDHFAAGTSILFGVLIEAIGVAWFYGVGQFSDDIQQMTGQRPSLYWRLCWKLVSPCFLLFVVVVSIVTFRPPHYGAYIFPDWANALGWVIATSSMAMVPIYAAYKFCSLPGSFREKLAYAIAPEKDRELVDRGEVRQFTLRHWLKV
Sequence of Adenosine receptor A2a (P29274 whole entry): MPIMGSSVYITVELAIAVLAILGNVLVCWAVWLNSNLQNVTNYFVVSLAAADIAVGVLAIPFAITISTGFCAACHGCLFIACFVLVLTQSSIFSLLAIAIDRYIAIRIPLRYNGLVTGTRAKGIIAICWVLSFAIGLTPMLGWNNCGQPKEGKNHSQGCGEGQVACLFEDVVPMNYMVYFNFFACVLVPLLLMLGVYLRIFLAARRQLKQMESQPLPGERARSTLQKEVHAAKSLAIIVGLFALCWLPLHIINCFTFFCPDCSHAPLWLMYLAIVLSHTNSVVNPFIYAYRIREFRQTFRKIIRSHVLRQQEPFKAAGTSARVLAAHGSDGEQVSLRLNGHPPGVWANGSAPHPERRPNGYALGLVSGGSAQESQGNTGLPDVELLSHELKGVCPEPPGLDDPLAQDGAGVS
Sequence of Cannabinoid receptor 1 (P21554 whole entry): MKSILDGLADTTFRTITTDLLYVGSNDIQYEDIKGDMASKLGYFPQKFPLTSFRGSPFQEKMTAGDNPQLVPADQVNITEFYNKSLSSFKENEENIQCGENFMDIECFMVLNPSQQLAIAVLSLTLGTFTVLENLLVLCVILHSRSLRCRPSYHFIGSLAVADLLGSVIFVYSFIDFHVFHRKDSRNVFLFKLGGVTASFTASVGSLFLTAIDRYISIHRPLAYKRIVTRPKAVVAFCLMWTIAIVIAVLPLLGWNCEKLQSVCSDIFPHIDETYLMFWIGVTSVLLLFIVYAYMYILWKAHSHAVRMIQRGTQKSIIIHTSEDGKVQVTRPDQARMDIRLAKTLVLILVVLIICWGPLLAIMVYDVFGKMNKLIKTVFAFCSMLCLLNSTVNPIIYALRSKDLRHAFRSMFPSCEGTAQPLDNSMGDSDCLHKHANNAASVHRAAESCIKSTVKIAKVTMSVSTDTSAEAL

Row | SMILES | AC50 [1] | AC50 [2] | AC50 [3] | AC50 [4] | AC50 [5] | AC50 [6] | AC50 [7] | AC50 [8] | AC50 [9] | AC50 [10] | AC50 [11] | AC50 [12]
1 | O=C1CN2Cc3c(ccc(Cl)c3Cl)N=C2N1 [ANAGRELIDE] | > 30 µM | > 10 µM | > 30 µM | > 10 µM | > 30 µM | > 30 µM | > 10 µM |  |  |  |  | 
2 | C=C(C)[C@@H]1CCC(C)=C[C@H]1c1c(O)cc(CCCCC)cc1O [CANNABIDIOL] | > 30 µM | > 30 µM | > 30 µM | 2.28 µM | 28 µM | > 10 µM | 26 µM | > 10 µM | 25 µM |  |  | 
3 | [H]/N=C(\N/C(=N/[H])NCCCCCCNC(=N)NC(=N)Nc1ccc(Cl)cc1)Nc1ccc(Cl)cc1 [CHLORHEXIDINE] | > 30 µM | 1.8 µM | > 30 µM | 1.26 µM | 3 µM | 0.6 µM |  | 8.3 µM | 11 µM |  |  | 
4 | C=C1c2c(Cl)ccc(O)c2C(=O)C2=C(O)[C@]3(O)C(=O)C(C(N)=O)=C(O)[C@@H](N(C)C)[C@@H]3[C@@H](O)[C@H]12 [MECLOCYCLINE] |  |  |  |  |  |  |  |  |  | > 30 µM | > 30 µM | 
5 | Cc1cc2c(OCC(O)CNC(C)C)cccc2[nH]1 (stereo not given) [MEPINDOLOL] |  |  |  |  |  |  |  |  |  | > 30 µM | > 30 µM | 
6 | CC(=O)/N=c1/sc(S(N)(=O)=O)nn1C [METHAZOLAMIDE] | > 10 µM | > 10 µM |  | > 10 µM | > 10 µM |  |  | > 10 µM | > 30 µM | > 30 µM | > 30 µM | 
7 | CC[C@@H](CO)NC(=O)[C@@H]1C=C2c3cccc4[nH]cc(c34)C[C@H]2N(C)C1 [METHYLERGONOVINE] | > 30 µM | 1.7 µM | > 30 µM |  | > 30 µM |  | > 30 µM |  | > 30 µM |  |  | > 30 µM
8 | CCCCCOc1ccc(-c2cc(-c3ccc(C(=O)N[C@H]4C[C@@H](O)[C@@H](O)NC(=O)[C@@H]5[C@@H](O)[C@@H](C)CN5C(=O)[C@H]([C@H](O)CC(N)=O)NC(=O)[C@H]([C@H](O)[C@@H](O)c5ccc(O)c(OS(=O)(=O)O)c5)NC(=O)[C@@H]5C[C@@H](O)CN5C(=O)[C@H]([C@@H](C)O)NC4=O)cc3)no2)cc1 [MICAFUNGIN] (X1-[Orn(4R-OH,5R-OH)]T[Hyp][hTyr(3S-OH,4S-OH,3'-OSO3H)][Gln(3R-OH)][Pro(3S-OH,4S-Me)]; lactam 1-C) |  |  |  |  |  |  |  |  |  | > 30 µM | 7.25 µM | 
9 | CCOc1ccc2ccccc2c1C(=O)N[C@@H]1C(=O)N2[C@@H]1SC(C)(C)[C@@H]2C(=O)O [NAFCILLIN] |  |  |  |  |  |  |  |  |  | > 30 µM | > 30 µM | 
10 | CC(=O)Oc1ccccc1C(=O)Nc1ncc([N+](=O)[O-])s1 [NITAZOXANIDE] | 8.8 µM |  |  | 17 µM | 7.3 µM | 8.6 µM | 10 µM |  | > 30 µM | > 30 µM | > 30 µM | > 30 µM
11 | CCCCCCCCCCC[C@@H](C[C@@H]1OC(=O)[C@H]1CCCCCC)OC(=O)[C@H](CC(C)C)NC=O [ORLISTAT] |  |  |  |  |  |  |  |  |  | > 30 µM | > 30 µM | 
12 | O=C1[C@H]2CCCC[C@H]2C(=O)N1CCCCN1CCN(c2nsc3ccccc23)CC1 [PEROSPIRONE] |  |  |  |  |  |  |  |  |  | > 30 µM | > 30 µM | 
